Here are results for seven compounds from publication PMC6281413, “Inhibition of breast cancer metastasis to the lungs with UBS109” (Oncotarget, 2018).

Data set [1] deals with human pancreatic cancer cells MiaPaca-2, ASPC-1, PT45P1 and PT45P1/asTF+. Further details: method as in doi:10.14319/ijcto.32.19. Conditions: cited from earlier work; for ranking of the cytotoxic activities: four human pancreatic cancer cell lines.
The test system of data set [2] is NCI-60 cancer cell line panel. Further details: method as in PMID 15210154, PMID 15711178, PMID 16722634. Conditions: mean, read-out: mean growth inhibitory concentration GI50; cited from earlier work.
Data set [3] deals with MDA-MB-231 breast cancer cells. Further details: method as in PMID 24628271. Conditions: at 1.25 μM, in vitro; cited from earlier work.
On the set-up of data set [4]: method as in PMID 24628271, PMID 23933177, doi:10.14319/ijcto.32.19. Conditions: cited from earlier work.
The nature of data set [5]: pharmacokinetic study, single i.p. dose, plasma by LC/MS/MS. Type of data set: in vivo, CD-1 mice. Conditions: 15 mg/kg i.p. How it is done:
Pharmacokinetic analysis of the plasma concentration time curve for each animal was conducted using noncompartmental analysis with WinNonlin® Version 6.3.0 (Figure 5). […] This is approximately […] in the blood of mice and, given the molecular weight of UBS109 of 291.4, yields a blood concentration of approximately 1.5 μM.
A pharmacokinetic (PK) study was performed by Agilux Laboratories Inc./Charles River laboratories, Inc. (Worcester, MA, USA). Male CD-1 mice (Harlan Laboratories, Inc.) weighing 28 ± 1.6 grams were used for the PK study. Three mice were administered a single i.p. dose of UBS109 15 mg/kg in 10% DMSO and 90% PBS.
A blood sample (approximately 35–40 μL) was taken from each animal from the tail vein at 4 different time points after dosing: 0.25, 0.5, 2, and 8 h (n=3 mice/time point). Samples were collected into K2EDTA-coated Microvette tubes (Sarstedt) on wet ice (protected from light) and processed to plasma by centrifugation (3500 rpm at 5°C) within 1 hour of collection. All plasma samples were transferred into separate 96 well plates (matrix tubes) and stored at −80°C until analysis for the parent drug by Agilux Laboratories/Charles River laboratories, Inc. via LC/MS/MS.
The plasma samples (10 μL) were deproteinated with acetonitrile (80 μL) and analyzed by LC/MS/MS using an internal standard (carbutamide) spiking technique with an AB SCIEX 6500+ system equipped with a Waters Acuity BEH C18 UPLC column (2 × 50 mm, 1.7 μm) operating at 55°C with mobile phases A (95:5:0.1 H2O:CAN:FA) and B (50:50:0.1 CAN:MeOH:FA). The corresponding time courses were 1.40 and 2.10 min (%MPB 95; Flow 0.800 mL/min) followed by a 2.80 min Strong Needle Rinse (25:25:25:25:0.1 (v:v:v:v:v) MeOH:ACN:IPA:H2O:NH4OH). The verified research grade bioanalytical assay method to determine the plasma concentrations of UBS109 (RGA Level 1) employed an API 6500+ electrospray, positive ion MS/MS device. The mean, standard deviation, and %CV of plasma levels were determined using Microsoft® Office Excel 2007. Mean concentration data was plotted against time to create plasma concentration versus time profiles at each dosage (Table 2 and Figure 5).
Pharmacokinetic analysis of the plasma concentration time curve for each animal was conducted using noncompartmental analysis with WinNonlin® Version 6.3.0. Areas under the curve (AUC) were estimated using the linear trapezoidal rule. The first order rate constant (Lambda Z) associated with the terminal (log-linear) elimination phase was estimated using linear regression of at least three nonzero concentrations versus time points in the late phase of the log concentration versus time profile. The half-life (t.) was calculated as ln(2)/Lambda Z. Nominal times were used in all the data analyses.

Data set [6] relates to MDA-MB-231 xenografts in the lungs. Briefly: breast cancer lung metastasis (colonization) model, MDA-MB-231 cells injected into the tail vein. Conditions: for Lung weight (breast tumor nodules): n=4, ± S.D., vehicle control 296.6 ± 18.8. Type of data set: in vivo, athymic nude mice. How it is done: The effect of UBS109 administration on lung metastasis was examined in mice bearing MDA-MB-231 xenografts in the lungs. Animals were administered therapeutic regimens of UBS109 by i.p. once/day 5 days/week (M-F) for 5 weeks, in the following groups: control vehicle, UBS109 at 5 mg/kg in vehicle, and UBS109 15 mg/kg in vehicle (n = 4). […] The cancer cells were mainly found in the lungs and some other sites. […] Treatment with UBS109 15 mg/kg appears the most efficacious in inhibiting tumors (lung colonies) (Figures 2 and 3). […] Lung weight was used to assess the breast cancer colony load present in the lungs of each mouse, since it is difficult to accurately count all colonies outside and inside in each lung.
Female athymic nude mice (nu/nu, Harlan Sprague-Dawley strain; 5-6 weeks old) were housed in a pathogen-free facility. All procedures and protocols were approved by the Institutional Animal Care and Use Committee at Emory University. Mice were randomized into […]: normal group (no tumor cells injected), lung metastasis model group (vehicle control), and two UBS109-treated groups with different dosages, 5 and 15 mg/kg body weight, 4 mice in each group.
Athymic nude mice were housed in a pathogen-free facility and were intravenously injected into the tail vein with breast cancer MDA-MB-231 bone metastatic cells (10^6 cells/mouse) to result in lung metastasis (colonization). One week following injection, mice were randomized to receive either vehicle (0.5% carboxymethyl cellulose sodium [CMC] with 10% DMSO in sterile water) or drug (UBS109). The agents (vehicle, UBS109 at 5 or 15 mg/kg body weight) were administered intraperitoneally (i.p.) daily 5 days per week for 5 weeks (n = 4 mice/regimen). CMC was dissolved in distilled water and sterilized by autoclaving. Due to chemical instability, a stock solution of the drugs was made fresh each time, by weighing out 100 mg UBS109 and dissolving it in 1 mL of 100% DMSO by briefly heating before making the appropriate dilution. […] Body weights were measured once a week.

Data set [7] can be described thus: body weight / toxicity during treatment in the lung metastasis model. Type of data set: in vivo, athymic nude mice. How it is done: Athymic nude mice were housed in a pathogen-free facility and were intravenously injected into the tail vein with breast cancer MDA-MB-231 bone metastatic cells (10^6 cells/mouse) to result in lung metastasis (colonization). One week following injection, mice were randomized to receive either vehicle (0.5% carboxymethyl cellulose sodium [CMC] with 10% DMSO in sterile water) or drug (UBS109). The agents (vehicle, UBS109 at 5 or 15 mg/kg body weight) were administered intraperitoneally (i.p.) daily 5 days per week for 5 weeks (n = 4 mice/regimen). CMC was dissolved in distilled water and sterilized by autoclaving. Due to chemical instability, a stock solution of the drugs was made fresh each time, by weighing out 100 mg UBS109 and dissolving it in 1 mL of 100% DMSO by briefly heating before making the appropriate dilution. After UBS109 administration for 5 weeks, animals were sacrificed. The lungs containing breast cancer tumors were weighed and fixed in 10% neutralized formalin for 48 h. Paraffin embedded blocks were stained with hematoxylin and eosin (H&E). Body weights were measured once a week.

Values joined by “and” are separate entries in the source; they are usually repeats but may differ in a detail not shown here. Equal entries are not always repeated. “Also recorded” adds a separate entry of the source. Where two headings read alike, the source gives them in different places.

For the compound `NC1(c2ccc(-c3nc4ccn5c(=O)[nH]nc5c4cc3-c3ccccc3)cc2)CCC1` [Akt inhibitor], the “ranking of the cytotoxic activities” value in data set [1] was “UBS109> EF24> HSP90 inhibitor> gemcitabine> Akt inhibitor> p38 MAPK inhibitor”.

Turning to `O=C1/C(=C/c2ccccc2F)CNC/C1=C\c1ccccc1F` [EF24, 3,5-bis(2-flurobenzylidene)piperidin-4-one], the “ranking of the cytotoxic activities” value in data set [1] is recorded as “UBS109> EF24> HSP90 inhibitor> gemcitabine> Akt inhibitor> p38 MAPK inhibitor”. For the same compound, the GI50 in data set [2] is 0.7 µM.

As to `CC(C)c1cc(-c2n[nH]c(=O)n2-c2ccc3c(ccn3C)c2)c(O)cc1O` [HSP90 inhibitor], in data set [1], the “ranking of the cytotoxic activities” value was “UBS109> EF24> HSP90 inhibitor> gemcitabine> Akt inhibitor> p38 MAPK inhibitor”.

Usually AUC(0-t) stands for exposure summed from dosing to a finite time, without extrapolation to infinity. High values mean high exposure, low ones low exposure. Usually AUC(0-inf) stands for the area under the concentration-time curve extrapolated to infinity. Lower therefore signals less exposure. Regarding `CN1CC(=Cc2ccccn2)C(=O)C(=Cc2ccccn2)C1` [UBS109, 3,5-bis(2-pyridinylmethylidene)-1-methyl-4-piperidone], the “cell killing of MDA-MB-231 cells” value in data set [3] was 100%. The “water solubility relative to other MACs” value in data set [4] was “most water soluble among the MACs”. The “inhibition of all four pancreatic cancer cell lines” value in data set [1] (at 0.25 μM) is 100%. For the same compound, the “ranking of the cytotoxic activities” value in data set [1] is recorded as “UBS109> EF24> HSP90 inhibitor> gemcitabine> Akt inhibitor> p38 MAPK inhibitor”. Further, in data set [5] (individual mouse), the AUClast is 813 ng·h/mL and 116 ng·h/mL and 1061 ng·h/mL. For the same compound, the Cmax in data set [5] (individual mouse) is 398 ng/mL and 623 ng/mL and 835 ng/mL; in data set [5] (male, CD-1, mouse, plasma, ip, 15 mg/kg, at 15 min post injection, read-out: maximal blood concentration (Cmax)) it was 432 ± 387 ng/mL; in data set [5] (male, CD-1, mouse, plasma, ip, 15 mg/kg, mean of 3 mice, read-out: Cmax) it was 619 ng/mL. Moreover, the “Extrapolated (AUC)” value in data set [5] (individual mouse) and in data set [5] (mean (only mouse 2 reported)) was 6.15% each time. The “T ½” value in data set [5] (mean of mice (only mouse 2 reported)) is 1.97 h. In addition, the “approximate concentration in the blood of mice” value in data set [5] (restated from Cmax) is listed as “approximately 1.5 ng/ml”. Further, in data set [5] (male, CD-1, mouse, plasma, ip, 15 mg/kg, mean of 3 mice), the area under the curve AUC(0-t) was 664 ng·h/mL. In data set [5] (male, CD-1, mouse, plasma, ip, read-out: time of maximal blood concentration post injection (converted)), the Tmax was 15 min. The compound also returned an AUC(0-inf) in data set [5] (male, CD-1, plasma, ip, individual mouse) of 124 ng·h/mL. Besides, in data set [5] (male, CD-1, plasma, ip, individual mouse, read-out: T ½ (converted)), the half-life was 118 min. Besides, in data set [6] (15 mg/kg i.p. once daily 5 days/week for 5 weeks), the “effect on lung metastasis/colonization (tumor deposition in the lungs by weight)” value is listed as “significantly reduced; also recorded: significantly inhibited; also recorded: inhibited lung metastases”. Besides, the “Lung weight (breast tumor nodules)” value in data set [6] (UBS109 5 mg/kg i.p. once daily 5 days/week for 5 weeks) was 285.9 ± 11.2 mg; in data set [6] (UBS109 15 mg/kg i.p. once daily 5 days/week for 5 weeks, p<0.05 vs control), 226.6 ± 19.8 mg. In data set [7] (5 or 15 mg/kg body weight i.p. once daily 5 days a week for 5 weeks), the “toxicity judged from body weight” value is reported as “not toxic”. Besides, the “body weight during treatment” value in data set [7] (5 or 15 mg/kg i.p. once daily 5 days/week for 5 weeks, versus controls) was “did not lose weight; also recorded: remained the same as in the other groups”.

With `N.N.[Cl][Pt][Cl]` [cisplatin], in data set [2], the GI50 was 9.5 µM.

`Nc1ccn([C@@H]2O[C@H](CO)[C@@H](O)C2(F)F)c(=O)n1` [gemcitabine]: the “ranking of the cytotoxic activities” value in data set [1] is “UBS109> EF24> HSP90 inhibitor> gemcitabine> Akt inhibitor> p38 MAPK inhibitor”. The “maximal killing of pancreatic cancer cells” value in data set [1] (up to 20 μM used in the test) was “above 50%”.

Take diferuloylmethane [curcumin]: the GI50 in data set [2] was 7.3 µM.
